Laboratory results as given in patent US6995188B2 (priority 2002, dated 2006).
Several values for one entry are separate records, joined by “and”; a condition that tells them apart may be missing. Equal values may be shown once.

What was measured:
HL-60 cells = assay type: cell-based, human
U937/PR9 cells = assay type: cell-based, human
[1] = SGLU1 multiple dose toxicology in vivo; set-up: species or system mice; key to Death: “—” indicates no compound-related finding
Experimental: Further studies were performed to determine the dose-limiting toxicity associated with the administration of repeated doses in groups of mice. Tables 11–16 below describe the results of the multiple-dose toxicology studies for MER-1 and Tables 17–21 describe results of the multiple-dose toxicology of SGLU-1.
The results of the SGLU-1 Multiple Dose I.V. are summarized as follows: Five mice/sex were administered 5 daily intravenous injections of SGLU via the tail vein at doses of 50, 100, 150, 200, 250, 300, and 350 mg/kg/day. All surviving mice were held for 28 days, sacrificed, and designated tissues collected, formalin fixed, and examined.

[2] = test system: caspase 3 and caspase 3-like activities; assay type: cell-based, human
[3] = test system: P388 lymphocytic leukemia cells; details: mouse, in vivo, ip, 100 mg/kg; cited from earlier work
[4] = 5 daily IV injections, 50–350 mg/kg/day

C[As](C)SC[C@H](NC(=O)CC[C@H](N)C(=O)O)C(=O)NCC(=O)O [SGLU1, S-(dimethylarsino) glutathione]
effect on cell cycle (HL-60 cells): marked accumulation of cells in S-phase of cell cycle
influence of functional PML/RARalpha gene on sensitivity (U937/PR9 cells): no influence on the sensitivity of the cells
Clinical Signs ([1]; 50 mg/kg/day IV daily x5): None.
Death ([1]; 50 mg/kg/day IV daily x5): —
Kidney: Murine progressive glomerulonephropathy, incidence ([1]; 50 mg/kg/day, F): 1/5
Liver: Pyogranuloma, focal, incidence ([1]; 50 mg/kg/day, F): 1/5
Lung: Hemorrhage, focal, incidence ([1]; 50 mg/kg/day, F): 1/5
Number of animals/dose that tolerated 5 doses ([1]; 50 mg/kg/day, F): 5/5
Body Weights Avg. ([1]; 50 mg/kg/day, Female): 25 grams
Liver: Pyogranuloma, focal, incidence ([1]; 50 mg/kg/day, M): 1/5
Lung: Atelectasis, incidence ([1]; 50 mg/kg/day, M): 1/5
Lung: Pleural adhesion, focal, incidence ([1]; 50 mg/kg/day, M): 1/5
Number of animals/dose that tolerated 5 doses ([1]; 50 mg/kg/day, M): 5/5
Body Weights Avg. ([1]; 50 mg/kg/day, Male): 25 grams
Clinical Signs ([1]; 100 mg/kg/day IV daily x5): None.
Death ([1]; 100 mg/kg/day IV daily x5): —
Kidney: Inflammation, focal, incidence ([1]; 100 mg/kg/day, F): 2/5
Liver: Pyogranuloma, focal, incidence ([1]; 100 mg/kg/day, F): 5/5
Number of animals/dose that tolerated 5 doses ([1]; 100 mg/kg/day, F): 5/5
Body Weights Avg. ([1]; 100 mg/kg/day, Female): 24 grams
Liver: Pyogranuloma, focal, incidence ([1]; 100 mg/kg/day, M): 1/5
Number of animals/dose that tolerated 5 doses ([1]; 100 mg/kg/day, M): 5/5
Body Weights Avg. ([1]; 100 mg/kg/day, Male): 23 grams
Clinical Signs ([1]; 150 mg/kg/day IV daily x5): None.
Death ([1]; 150 mg/kg/day IV daily x5): —
Liver: Inflammation, portal, incidence ([1]; 150 mg/kg/day, F): 2/5
Liver: Pyogranuloma, focal, incidence ([1]; 150 mg/kg/day, F): 3/5
Number of animals/dose that tolerated 5 doses ([1]; 150 mg/kg/day, F): 5/5
Body Weights Avg. ([1]; 150 mg/kg/day, Female): 25 grams
Kidney: Inflammation, focal, incidence ([1]; 150 mg/kg/day, M): 1/5
Liver: Pyogranuloma, focal, incidence ([1]; 150 mg/kg/day, M): 1/5
Lung: Inflammation, focal, incidence ([1]; 150 mg/kg/day, M): 1/5
Number of animals/dose that tolerated 5 doses ([1]; 150 mg/kg/day, M): 5/5
Tail: Acute necrosis with vasculitis, thrombosis, and hemorrhage, incidence ([1]; 150 mg/kg/day, M): 1/5
Tail: Ulcerative dermatitis, incidence ([1]; 150 mg/kg/day, M): 1/5
Testes: Seminiferous tubular degeneration, incidence ([1]; 150 mg/kg/day, M): 1/5
Body Weights Avg. ([1]; 150 mg/kg/day, Male): 23 grams
Clinical Signs ([1]; 200 mg/kg/day IV daily x5): 2 F tail necrosis: amputate
Death ([1]; 200 mg/kg/day IV daily x5): —
Kidney: Inflammation, focal, incidence ([1]; 200 mg/kg/day, F): 2/5
Liver: Hepatocyte hypertrophy: Centrilobular (compatible with SER), incidence ([1]; 200 mg/kg/day, F): 1/5
Liver: Increased mitoses, incidence ([1]; 200 mg/kg/day, F): 1/5
Liver: Inflammation, portal, incidence ([1]; 200 mg/kg/day, F): 3/5
Liver: Pyogranuloma, focal, incidence ([1]; 200 mg/kg/day, F): 3/5
Number of animals/dose that tolerated 5 doses ([1]; 200 mg/kg/day, F): 5/5
Tail: Acute necrosis with vasculitis, thrombosis, and hemorrhage, incidence ([1]; 200 mg/kg/day, F): 4/5
Tail: Ulcerative dermatitis, incidence ([1]; 200 mg/kg/day, F): 2/5
Body Weights Avg. ([1]; 200 mg/kg/day, Female): 24 grams
Epididymus: Oligospermia, incidence ([1]; 200 mg/kg/day, M): 1/5
Heart: Interstitial fat, increased, incidence ([1]; 200 mg/kg/day, M): 1/5
Liver: Ito cell hypertrophy, incidence ([1]; 200 mg/kg/day, M): 1/5
Liver: Pyogranuloma, focal, incidence ([1]; 200 mg/kg/day, M): 2/5
Number of animals/dose that tolerated 5 doses ([1]; 200 mg/kg/day, M): 5/5
Testes: Seminiferous tubular degeneration, incidence ([1]; 200 mg/kg/day, M): 1/5
Body Weights Avg. ([1]; 200 mg/kg/day, Male): 24 grams
Clinical Signs ([1]; 250 mg/kg/day IV daily x5): 2 M tail necr.: amputate
Liver: Focus of Alteration, eosinophilic, incidence ([1]; 250 mg/kg/day, F): 1/5
Liver: Hepatocyte hypertrophy: Centrilobular (compatible with SER), incidence ([1]; 250 mg/kg/day, F): 1/5
Liver: Inflammation, portal, incidence ([1]; 250 mg/kg/day, F): 2/5
Liver: Pyogranuloma, focal, incidence ([1]; 250 mg/kg/day, F): 1/5
Lung: Inflammation, focal, incidence ([1]; 250 mg/kg/day, F): 1/5
Number of animals/dose that tolerated 4 doses ([1]; 250 mg/kg/day, F): 1/5
Number of animals/dose that tolerated 5 doses ([1]; 250 mg/kg/day, F): 4/5
Body Weights Avg. ([1]; 250 mg/kg/day, Female): 24 grams
Epididymus: Oligospermia, incidence ([1]; 250 mg/kg/day, M): 1/5
Liver: Hepatocyte hypertrophy: Centrilobular (compatible with SER), incidence ([1]; 250 mg/kg/day, M): 5/5
Liver: Pyogranuloma, focal, incidence ([1]; 250 mg/kg/day, M): 3/5
Number of animals/dose that tolerated 5 doses ([1]; 250 mg/kg/day, M): 5/5
Tail: Acute necrosis with vasculitis, thrombosis, and hemorrhage, incidence ([1]; 250 mg/kg/day, M): 2/5
Tail: Ulcerative dermatitis, incidence ([1]; 250 mg/kg/day, M): 1/5
Testes: Seminiferous tubular degeneration, incidence ([1]; 250 mg/kg/day, M): 2/5
Body Weights Avg. ([1]; 250 mg/kg/day, Male): 24 grams
Clinical Signs ([1]; 300 mg/kg/day IV daily x5): Slight decr. activity and 1 F tail necr.: amputate
Kidney: Congestion, incidence ([1]; 300 mg/kg/day, F): 1/5
Liver: Hepatocyte hypertrophy: Centrilobular (compatible with SER), incidence ([1]; 300 mg/kg/day, F): 2/5
Liver: Hepatocyte hypertrophy: Panlobular w/eosinophilia, incidence ([1]; 300 mg/kg/day, F): 1/5
Liver: Pyogranuloma, focal, incidence ([1]; 300 mg/kg/day, F): 1/5
Lung: Atelectasis, incidence ([1]; 300 mg/kg/day, F): 1/5
Lung: Congestion, incidence ([1]; 300 mg/kg/day, F): 3/5
Lung: Vasculitis, incidence ([1]; 300 mg/kg/day, F): 1/5
Number of animals/dose that tolerated 1 dose ([1]; 300 mg/kg/day, F): 1/5
Number of animals/dose that tolerated 2 doses ([1]; 300 mg/kg/day, F): 2/5
Number of animals/dose that tolerated 5 doses ([1]; 300 mg/kg/day, F): 2/5
Tail: Acute necrosis with vasculitis, thrombosis, and hemorrhage, incidence ([1]; 300 mg/kg/day, F): 1/5
Body Weights Avg. ([1]; 300 mg/kg/day, Female): 24 grams
Epididymus: Oligospermia, incidence ([1]; 300 mg/kg/day, M): 2/5
Heart: Medial hyprtrophy, coronary artery, incidence ([1]; 300 mg/kg/day, M): 1/5
Liver: Hepatocyte hypertrophy: Centrilobular (compatible with SER), incidence ([1]; 300 mg/kg/day, M): 4/5
Liver: Pyogranuloma, focal, incidence ([1]; 300 mg/kg/day, M): 2/5
Lung: Congestion, incidence ([1]; 300 mg/kg/day, M): 1/5
Number of animals/dose that tolerated 1 dose ([1]; 300 mg/kg/day, M): 3/5
Number of animals/dose that tolerated 5 doses ([1]; 300 mg/kg/day, M): 2/5
Tail: Acute necrosis with vasculitis, thrombosis, and hemorrhage, incidence ([1]; 300 mg/kg/day, M): 1/5
Tail: Ulcerative dermatitis, incidence ([1]; 300 mg/kg/day, M): 1/5
Testes: Seminiferous tubular degeneration, incidence ([1]; 300 mg/kg/day, M): 2/5
Body Weights Avg. ([1]; 300 mg/kg/day, Male): 23 grams
Clinical Signs ([1]; 350 mg/kg/day IV daily x5): Moderate decr. activity and 2 M tail necr.: amputate
Kidney: Murine progressive glomerulonephropathy, incidence ([1]; 350 mg/kg/day, F): 1/5
Liver: Hepatocyte hypertrophy: Periportal w/vacuolation, incidence ([1]; 350 mg/kg/day, F): 2/5
Liver: Inflammation, portal, incidence ([1]; 350 mg/kg/day, F): 1/5
Lung: Congestion, incidence ([1]; 350 mg/kg/day, F): 2/5
Lung: Fibrin Thrombi, incidence ([1]; 350 mg/kg/day, F): 1/5
Lung: Vasculitis, incidence ([1]; 350 mg/kg/day, F): 1/5
Mandibular L. N.: Apoptosis, lymphocyte, incidence ([1]; 350 mg/kg/day, F): 1/5
Number of animals/dose that tolerated 1 dose ([1]; 350 mg/kg/day, F): 4/5
Number of animals/dose that tolerated 2 doses ([1]; 350 mg/kg/day, F): 1/5
Spleen: Congestion, incidence ([1]; 350 mg/kg/day, F): 5/5
Thymus: Apoptosis, increased, incidence ([1]; 350 mg/kg/day, F): 5/5
Body Weights Avg. ([1]; 350 mg/kg/day, Female): 24 grams
Bone Marrow: Myeloid hyperplasia, incidence ([1]; 350 mg/kg/day, M): 1/5
Epididymus: Oligospermia, incidence ([1]; 350 mg/kg/day, M): 5/5
Kidney: Congestion, incidence ([1]; 350 mg/kg/day, M): 1/5
Kidney: Inflammation, focal, incidence ([1]; 350 mg/kg/day, M): 1/5
Liver: Hepatocyte hypertrophy: Centrilobular (compatible with SER), incidence ([1]; 350 mg/kg/day, M): 1/5
Liver: Increased mitoses, incidence ([1]; 350 mg/kg/day, M): 1/5
Liver: Pyogranuloma, focal, incidence ([1]; 350 mg/kg/day, M): 2/5
Lung: Fibrin Thrombi, incidence ([1]; 350 mg/kg/day, M): 1/5
Lung: Hemorrhage, focal, incidence ([1]; 350 mg/kg/day, M): 2/5
Number of animals/dose that tolerated 1 dose ([1]; 350 mg/kg/day, M): 3/5
Number of animals/dose that tolerated 5 doses ([1]; 350 mg/kg/day, M): 2/5
Spleen: Congestion, incidence ([1]; 350 mg/kg/day, M): 2/5
Spleen: Extramedullary hematopoiesis, increased, incidence ([1]; 350 mg/kg/day, M): 1/5
Tail: Acute necrosis with vasculitis, thrombosis, and hemorrhage, incidence ([1]; 350 mg/kg/day, M): 1/5
Testes: Seminiferous tubular degeneration, incidence ([1]; 350 mg/kg/day, M): 5/5
Thymus: Apoptosis, increased, incidence ([1]; 350 mg/kg/day, M): 2/5
Body Weights Avg. ([1]; 350 mg/kg/day, Male): 20 grams
deaths (summary) [1, 4]: Deaths occurred at 250, 300, and 350 mg/kg/day with female mice being more susceptible than males
microscopic observations (summary) [1, 4]: compound-related lesions in lung, liver, thymus, and testes
Deaths, number of animals/dose ([1]; 5 daily IV injections, F, 50 mg/kg/day): 0/5
Deaths, number of animals/dose ([1]; 5 daily IV injections, F, 150 mg/kg/day): 0/5
Deaths, number of animals/dose ([1]; 5 daily IV injections, F, 200 mg/kg/day): 0/5
Deaths, number of animals/dose ([1]; 5 daily IV injections, F, 250 mg/kg/day): 1/5
Deaths, number of animals/dose ([1]; 5 daily IV injections, F, 300 mg/kg/day): 3/5
Deaths, number of animals/dose ([1]; 5 daily IV injections, F, 350 mg/kg/day): 5/5
Deaths, number of animals/dose ([1]; 5 daily IV injections, M, 50 mg/kg/day): 0/5
Deaths, number of animals/dose ([1]; 5 daily IV injections, M, 100 mg/kg/day): 0/5
Deaths, number of animals/dose ([1]; 5 daily IV injections, M, 150 mg/kg/day): 0/5
Deaths, number of animals/dose ([1]; 5 daily IV injections, M, 200 mg/kg/day): 0/5
Deaths, number of animals/dose ([1]; 5 daily IV injections, M, 250 mg/kg/day): 0/5
Deaths, number of animals/dose ([1]; 5 daily IV injections, M, 300 mg/kg/day): 1/5
Deaths, number of animals/dose ([1]; 5 daily IV injections, M, 350 mg/kg/day): 3/5
no-observable-effect level ([1]; 5 daily IV injections, female mice): 150 mg/kg
centrilobular hypertrophy of hepatocytes, incidence ([1]; 5 daily IV injections, female mice, 200 mg/kg/day): 1/5
no-observable-effect level (NOEL) ([1]; 5 daily IV injections, male mice): 100 mg/kg/day
testicular seminiferous tubular degeneration, incidence ([1]; 5 daily IV injections, males, 150 mg/kg/day): 1/5
activation of caspases (PhiPhiLux staining) [2]: activation of caspases
% T/C [3]: 164%
